Experiments:
S. sanguinis [1] = assay: Dual-species competition model, S. sanguinis primary colonizer: S. sanguinis CFU; assay type: cell-based, Streptococcus sanguinis JFP36; conditions: 4 hours of co-culture
Description: (§1) Agar was incubated for 24-36 hours.

S. sanguinis [2] = assay: S. sanguinis growth curve, mono-species culture (Example 3); assay type: cell-based, Streptococcus sanguinis JFP36
Description: (§2) The suspensions were vortexed with glass beads to individualize cells, then approximately 10^6 cells were inoculated into wells of a 96-well polystyrene plate. At 2-hour intervals the bottom of the wells were scraped to remove any adherent cells, mixed, and an aliquot was removed, diluted and plated on BHI agar. Agar was incubated and CFU were counted after 24-36 hours.
(§3) The growth of S. mutans and S. sanguinis in the same medium used for competition experiments was evaluated to determine if the observed increase in viable cells in the presence of MUC5B (FIGS. 17A-C and FIGS. 18A-C) was due to enhanced bacterial growth. […] Growth in PBS containing MUC5B was studied to better understand if S. mutans and S. sanguinis can utilize MUC5B as a nutrient source when other nutrients are limited.

S. mutans [3] = tested on: S. mutans
Description: For dual-species models where S. mutans was the primary colonizer, S. mutans (10^7) was inoculated and incubated for 3 hours then S. sanguinis (10^6) was inoculated. For dual-species models where S. sanguinis was the primary colonizer, S. sanguinis (10^8) was inoculated, incubated for 3 hours, then S. mutans (10^7) was inoculated. After the secondary colonizer was inoculated, the dual-species culture was incubated until the time points indicated. For experiments quantifying biofilm formation, at the end of the experiment the supernatant was used to gently wash the biofilm to resuspend unattached cells, then the supernatant was removed. […] For experiments quantifying total cells, at the end of the experiment a sterile pipette tip was used to scrape the biofilm, then the suspension of biofilm and supernatant cells was vortexed with glass beads. […] Statistically significant differences were determined using the Student's t test, with P<0.05 considered significant.
An in vitro competition model was used to determine the effects of MUC5B on S. mutans and S. sanguinis biofilm formation when co-cultured. […] After 4 hours of co-culture, the supernatant was removed and the number of S. mutans and S. sanguinis in the biofilm were quantified by colony forming units. […] All comparisons of viable CFU discussed in the results are determined relative to the control with half-strength BHI and 1% sucrose. […]

S. sanguinis [4] = assay: Dual-species competition model, S. mutans primary colonizer: S. sanguinis CFU; assay type: cell-based, Streptococcus sanguinis JFP36; conditions: for increase of live S. sanguinis cells (secondary colonizer): S. mutans primary colonizer
Description: as §1

S. mutans [5] = assay: S. mutans growth curve, mono-species culture (Example 3); assay type: cell-based, Streptococcus mutans UA159
Description: as §2, §3

S. mutans [6] = assay: S. mutans attachment and biofilm formation on glass (Example 2); assay type: cell-based, Streptococcus mutans; conditions: 0.3% polymer in BHI with 1% sucrose, compared to BHI with 1% sucrose
Description: (§4) In FIG. 9, the biofilm is grown, then the supernatant is removed and the biofilm washed with PBS. To remove adherent cells, the bottom of the wells are scraped with a sterile pipette tip. Suspended cells are diluted, plated on agar and […] until colonies are visible.
As shown in FIG. 10A and FIG. 10B and FIG. 11A and FIG. 11B, salivary mucins decrease S. mutans attachment and biofilm formation. […] Error bars represent SDs. […] Scale Bars 20 μm.

S. sanguinis [7] = assay: S. mutans / S. sanguinis competition model, S. sanguinis survival (Example 2); assay type: cell-based, Streptococcus sanguinis
Description: The effect of MUC5B on S. mutans and S. sanguinis competition and coexistence was examined. To examine the effect of MUC5B, a model was developed to allow sufficient competition between S. mutans and S. sanguinis (FIG. 7). The two bacteria compete when one colonizes the surface and the second bacteria is introduced after some time.
The presence of 0.3% mucins in control medium, BHI containing 1% sucrose (S Medium), enhances S. sanguinis survival when S. mutans is the primary colonizer (FIG. 8A). * statistically significant difference determined by Student's t test (p<0.05). […] When the ratios of bacteria are equal (FIG. 8C), there is less competition, and effect of MUC5B is small. When the ratio is slightly skewed (FIG. 8B), competition increases and the protective effect of MUC5B is visible. * statistically significant difference determined by Student's t test (p<0.05). The protective effect of MUC5B may increase as inter-species competition increases. […] MUC5B may play a role in establishing a healthy oral microbiome.
as §4

S. sanguinis [8] = assay: CFU count assay, biofilm formation and total cells, single-species model, S. sanguinis; assay type: cell-based, Streptococcus sanguinis JFP36; conditions: for reduction of S. sanguinis biofilm formation: 0.4% polymer, relative to control
Description: (§5) For all experiments, S. mutans (bacterial strain Streptococcus mutans UA159) and S. sanguinis (erythromycin-resistant Streptococcus sanguinis JFP36) were grown overnight in Brain Heart Infusion (BHI) medium (Becton, Dickinson and Company). Before inoculating an experiment the cells were pelleted, washed with half-strength BHI containing 1% (wt/vol) sucrose (Sigma-Aldrich Company), then resuspended in half-strength BHI containing 1% sucrose. Acid-washed glass beads (425-600 μm, Sigma-Aldrich Company) were added to the resuspended bacteria to break up bacterial aggregates then the culture was vortexed for ten pulses of two seconds each. […] All experiments were performed in chambered glass slides at 37° C. with 5% CO2.
(§6) Equal numbers of CFU were inoculated into chambered glass slides then incubated. After a given amount of time, the supernatant was used to gently wash the biofilm to resuspend unattached cells, then the supernatant was removed. PBS was added to the wells then the biofilm was scraped using a sterile pipette tip. The supernatant and biofilm were vortexed with glass beads to individualize cells then the suspension was diluted, plated on BHI agar and incubated for 24-36 hours. […] Statistically significant differences were determined using the Student's t test, with P<0.05 considered significant.
(§7) The effect of MUC5B on S. sanguinis and S. mutans biofilm formation in single-species models was evaluated using colony forming units to quantify surface attached cells and the total number of viable cells in the supernatant and biofilm combined. Bacteria were grown in chambered glass slides in the presence of half-strength BHI with 1% sucrose and 0.4% MUC5B. […] Half-strength BHI was used to provide consistent media conditions throughout experiments in this study. […] All comparisons of viable CFU discussed in the results are determined relative to the control with half-strength BHI and 1% sucrose.

S. mutans [9] = assay: S. mutans growth curve and viable cell count (Example 2); assay type: cell-based, Streptococcus mutans; conditions: 0.3% polymer in BHI with 1% sucrose
Description: As shown in FIG. 12 and FIG. 13, S. mutans survival is unaffected by salivary mucins. […] Error bars represent SDs. […] Error bars represent SDs.

S. mutans [10] = assay: Dual-species competition model, S. sanguinis primary colonizer: S. mutans CFU; assay type: cell-based, Streptococcus mutans UA159; conditions: for increase of S. mutans CFU (secondary colonizer): S. sanguinis primary colonizer
Description: For dual-species models where S. mutans was the primary colonizer, S. mutans (10^7) was inoculated and incubated for 3 hours then S. sanguinis (10^6) was inoculated. For dual-species models where S. sanguinis was the primary colonizer, S. sanguinis (10^8) was inoculated, incubated for 3 hours, then S. mutans (10^7) was inoculated. After the secondary colonizer was inoculated, the dual-species culture was incubated until the time points indicated. For experiments quantifying biofilm formation, at the end of the experiment the supernatant was used to gently wash the biofilm to resuspend unattached cells, then the supernatant was removed. PBS was added to the wells then the biofilm was scraped using a sterile pipette tip. For experiments quantifying total cells, at the end of the experiment a sterile pipette tip was used to scrape the biofilm, then the suspension of biofilm and supernatant cells was vortexed with glass beads. For both experiments, cell suspensions were diluted then plated on BHI agar containing 10 μg/ml erythromycin to select for S. sanguinis and BHI agar with 1 U/ml bacitracin to select for S. mutans. Agar was incubated for 24-36 hours. […] Statistically significant differences were determined using the Student's t test, with P<0.05 considered significant.
An in vitro competition model was used to determine the effects of MUC5B on S. mutans and S. sanguinis biofilm formation when co-cultured. In this model, the pioneering colonizer was incubated for 3 hours then the secondary colonizer was inoculated and co-cultured for 4 hours (FIG. 15). The competition model used in this study is based on previous work by Kreth et al, J. Bacteriol. 187:7193-7203 (2005). In addition, sequential inoculation allows us to study competition in models where either S. sanguinis or S. mutans is the dominant species, which is relevant to the natural environment of the oral cavity. After 4 hours of co-culture, the supernatant was removed and the number of S. mutans and S. sanguinis in the biofilm were quantified by colony forming units. This method was used to evaluate biofilm formation when S. mutans is the primary colonizer (FIG. 16A) and when S. sanguinis is the primary colonizer (FIG. 16B). All comparisons of viable CFU discussed in the results are determined relative to the control with half-strength BHI and 1% sucrose.
To evaluate the effect of MUC5B on the viability of S. mutans and S. sanguinis in a dual-species competition model, the primary colonizer was incubated for 3 hours then inoculated the secondary colonizer and evaluated the total number of viable cells for each species over several hours (FIG. 15). […] Comparisons of viable CFU discussed in the results are determined relative to the control with half-strength BHI and 1% sucrose.

S. mutans [11] = assay: CFU count assay, biofilm formation and total cells, single-species model, S. mutans; assay type: cell-based, Streptococcus mutans UA159; conditions: for reduction of S. mutans biofilm formation: 0.4% polymer
Description: as §5, §6, §7

Substance: MUC5B: salivary mucin MUC5B purified by FPLC from pooled human submandibular saliva
- reduction of S. sanguinis (pioneering species) biofilm formation (S. sanguinis [1]; S. sanguinis pioneering species): 68%
- increase of viable S. sanguinis cells (primary colonizer) (S. sanguinis [1]; S. sanguinis primary colonizer): 826%
- effect on S. sanguinis growth (S. sanguinis [2]; 0.4% polymer in half-strength BHI with 1% sucrose): not significantly changed
- S. sanguinis growth with MUC5B as nutrient source (S. sanguinis [2]; PBS with 0.4% MUC5B): neither bacterium can utilize MUC5B to enhance growth
- decrease of S. mutans (primary colonizer) biofilm formation (S. mutans [3]; 4 hours of co-culture, relative to control): 95%
- effect on total viable S. mutans cells (S. mutans [3]; S. mutans primary colonizer, 5 hours of co-culture): no effect
- increase of S. sanguinis (secondary colonizer) biofilm formation (S. sanguinis [4]; S. mutans pioneering species, 4 hours of co-culture): 313%
- increase of live S. sanguinis cells (secondary colonizer) (S. sanguinis [4]; 4 hours of co-culture): 1670%
- increase of live S. sanguinis cells (secondary colonizer) (S. sanguinis [4]; 5 hours of co-culture): 8700%
- effect on S. mutans growth (S. mutans [5]; 0.4% polymer in half-strength BHI with 1% sucrose, time points up to 10 hours): slightly reduced or had no effect
- S. mutans growth with MUC5B as nutrient source (S. mutans [5]; PBS with 0.4% MUC5B): neither bacterium can utilize MUC5B to enhance growth
- levels of S. mutans attachment and biofilm formation on glass (S. mutans [6]): significantly reduces
- S. sanguinis survival when S. mutans is the primary colonizer (S. sanguinis [7]; 0.3% mucins in BHI with 1% sucrose, S. sanguinis inoculated 3 hours after S. mutans, 4 hours incubation, p<0.05): enhances
- protective effect, ratio of bacteria slightly skewed (S. sanguinis [7]; ratio slightly skewed (FIG. 8B)): visible
- effect on S. sanguinis / S. mutans competition, equal ratios of bacteria (S. sanguinis [7]; ratios of bacteria equal (FIG. 8C)): small
- number of viable S. sanguinis in the biofilm and supernatant (S. sanguinis [8]; 6 and 9 hours): did not change
- reduction of S. sanguinis biofilm formation (S. sanguinis [8]; 6 hours): 94%
- reduction of S. sanguinis biofilm formation (S. sanguinis [8]; 9 hours): 86%
- growth of S. mutans (growth curve) (S. mutans [9]): does not alter the growth
- number of viable S. mutans cells (bactericidal effect) (S. mutans [9]; timepoints up to 24 hours): no bactericidal effects
- effect on S. mutans (secondary colonizer) biofilm formation (S. mutans [10]; S. sanguinis pioneering species, 4 hours of co-culture): no significant effect
- increase of S. mutans CFU (secondary colonizer) (S. mutans [10]; 4 hours of co-culture): 74%
- increase of S. mutans CFU (secondary colonizer) (S. mutans [10]; 5 hours of co-culture): 235%
- increase of S. mutans CFU (secondary colonizer) (S. mutans [10]; 6 hours of co-culture): 568%
- total number of viable S. mutans cells (biofilm and supernatant) (S. mutans [11]; 6 hours): decreased slightly
- reduction of S. mutans biofilm formation (S. mutans [11]; 6 hours, relative to half-strength BHI with 1% sucrose): 94%
- S. mutans cells in the biofilm as share of total cells (S. mutans [11]; 6 hours, with MUC5B (control without polymer 66%)): 13%
- total number of S. mutans cells (S. mutans [11]; 9 hours): no significant effect
- reduction of S. mutans biofilm formation (S. mutans [11]; 9 hours, relative to control): 92%
